Laboratory results as given in patent US12246008B2, “4-amino or 4-alkoxy-substituted aryl sulfonamide compounds with selective activity in voltage-gated sodium channels” (Merck Sharp & Dohme LLC, priority 2018, dated 2025).
Read-outs that look alike come from different tables or passages of the source.

Experiments:
Assay in all cases: Qube automated patch-clamp assay, inhibition of sodium current
Assay type in all cases: cell-based
[1] = target: T1, human Nav1.6 channels stably expressed in HEK 293 cells (Homo sapiens, UniProt Q9UQD0); details: holding potential −65 mV; max concentration tested 33750 nM
T1 construct: expressed in transfected cells; host or cells: HEK 293
T1 sequence (Q9UQD0 whole entry): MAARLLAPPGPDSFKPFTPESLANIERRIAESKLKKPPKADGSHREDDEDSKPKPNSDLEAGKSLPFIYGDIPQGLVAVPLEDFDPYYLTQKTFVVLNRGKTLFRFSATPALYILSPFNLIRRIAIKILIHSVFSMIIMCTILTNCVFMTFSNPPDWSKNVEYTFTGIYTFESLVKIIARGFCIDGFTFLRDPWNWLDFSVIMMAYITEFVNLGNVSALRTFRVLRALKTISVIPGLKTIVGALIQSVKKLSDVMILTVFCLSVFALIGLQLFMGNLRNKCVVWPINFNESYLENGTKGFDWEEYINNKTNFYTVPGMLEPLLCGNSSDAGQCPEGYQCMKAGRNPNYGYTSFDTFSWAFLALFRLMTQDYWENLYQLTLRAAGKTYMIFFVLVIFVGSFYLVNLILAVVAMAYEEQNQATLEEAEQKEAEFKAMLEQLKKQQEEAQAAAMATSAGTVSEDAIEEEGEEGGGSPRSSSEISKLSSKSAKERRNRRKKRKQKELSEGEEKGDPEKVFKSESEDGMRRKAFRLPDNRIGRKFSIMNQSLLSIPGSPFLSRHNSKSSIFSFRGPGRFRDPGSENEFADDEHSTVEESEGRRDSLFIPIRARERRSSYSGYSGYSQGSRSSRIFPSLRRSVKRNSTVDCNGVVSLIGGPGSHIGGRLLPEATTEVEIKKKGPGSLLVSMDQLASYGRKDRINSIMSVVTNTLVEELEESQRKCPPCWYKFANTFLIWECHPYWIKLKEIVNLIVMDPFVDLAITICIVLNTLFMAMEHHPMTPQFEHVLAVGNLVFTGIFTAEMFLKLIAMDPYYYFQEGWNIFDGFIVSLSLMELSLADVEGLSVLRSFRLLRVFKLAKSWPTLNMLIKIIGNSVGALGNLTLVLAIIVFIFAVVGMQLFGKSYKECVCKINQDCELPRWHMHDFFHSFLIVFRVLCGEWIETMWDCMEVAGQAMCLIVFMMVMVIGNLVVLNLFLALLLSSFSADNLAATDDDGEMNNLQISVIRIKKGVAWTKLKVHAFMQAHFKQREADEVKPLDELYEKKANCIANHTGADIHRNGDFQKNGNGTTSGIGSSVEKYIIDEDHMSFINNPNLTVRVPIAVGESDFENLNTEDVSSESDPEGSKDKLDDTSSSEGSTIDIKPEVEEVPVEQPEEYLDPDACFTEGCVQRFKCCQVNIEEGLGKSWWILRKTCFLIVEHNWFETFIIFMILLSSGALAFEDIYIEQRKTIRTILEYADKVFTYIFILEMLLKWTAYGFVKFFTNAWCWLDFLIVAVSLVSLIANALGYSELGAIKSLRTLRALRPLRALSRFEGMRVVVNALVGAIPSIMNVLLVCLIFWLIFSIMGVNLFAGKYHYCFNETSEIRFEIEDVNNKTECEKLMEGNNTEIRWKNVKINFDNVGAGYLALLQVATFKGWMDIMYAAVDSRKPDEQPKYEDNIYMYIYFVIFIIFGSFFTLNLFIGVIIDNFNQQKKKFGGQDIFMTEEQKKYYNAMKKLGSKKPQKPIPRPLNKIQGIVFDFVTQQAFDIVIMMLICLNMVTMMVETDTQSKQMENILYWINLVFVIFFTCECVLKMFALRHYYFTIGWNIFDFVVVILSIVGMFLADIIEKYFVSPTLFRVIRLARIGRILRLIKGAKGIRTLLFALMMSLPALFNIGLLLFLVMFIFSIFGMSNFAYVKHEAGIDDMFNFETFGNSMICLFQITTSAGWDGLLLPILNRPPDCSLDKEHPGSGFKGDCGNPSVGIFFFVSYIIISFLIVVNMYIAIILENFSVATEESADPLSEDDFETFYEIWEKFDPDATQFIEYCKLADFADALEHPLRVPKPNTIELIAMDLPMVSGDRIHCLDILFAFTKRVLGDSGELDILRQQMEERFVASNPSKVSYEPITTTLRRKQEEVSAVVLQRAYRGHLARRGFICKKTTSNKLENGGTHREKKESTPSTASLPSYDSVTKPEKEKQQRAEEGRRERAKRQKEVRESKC
Method: (§1) Qube™ Experimental Procedure:
(§2) Compounds were tested on human Nav1.7 and Nav1.6 channels stably expressed in HEK 293 cells. […] Cells were sealed on a planar substrate using the multihole technology. Cells expressing human Nav1.7 channels were held at −75 mV or −80 mV. Cells expressing human Nav1.6 channels were held at −65 mV. A train of 6 consecutive test pulses to −10 mV, preceded by 8 s prepulses to −115 mV, was applied at a frequency of 0.1 Hz before and after compound addition. Cells in each Qchip well were incubated in compound for 5 minutes before measuring inhibition. Peak currents were measured in control conditions and after compound addition. The following recording solutions were used (mM). External Nav1.6: 150 NaCl, 2 CaCl2), 5 KCl, 1 Mg Cl2, 10 HEPES, 12 Dextrose; external Nav1.7: 40 NaCl, 120 NMDG, 1 KCl, 0.5 MgCl2, 5 HEPES, 2.7 CaCl2); internal: 120 CsF, 30 CsCl, 10 EGTA, 5 HEPES, 5 NaF, 2 MgCl2. Compounds were prepared as 10 mM stock solutions in DMSO. 10 point compound titrations were generated using the Echo acoustic liquid handling instrument and glass coated 384 well plates. The final DMSO concentration in the assay was 0.3%. For all electrophysiology experiments, offline analysis was used to determine percent inhibition as a function of drug concentration. IC50 values were determined by fitting to the Hill equation.
(§3) The various compounds in EXAMPLES 1 through 43 and TABLE 2 exemplified above were assayed for activity and selectivity using the foregoing Qube® technique. The results are reported in TABLE 3 in a format expressing the identification of the compound with reference EXAMPLE followed by the observed potency in nM for NaV1.7, NaV1.6 and NaV1.5. NA signifies not applicable and the max concentration tested is 33750 nM.

[2] = target: T2, human Nav1.7 channels stably expressed in HEK 293 cells (Homo sapiens, UniProt Q15858); details: max concentration tested 33750 nM, read-out: NaV1.7 (nM)
T2 construct: expressed in transfected cells; host or cells: HEK 293
Method: as §1, §2, §3

NaV1.5 = NaV1.5 (Homo sapiens, UniProt Q14524); details: holding potential −80 mV; max concentration tested 33750 nM
NaV1.5, sequence (Q14524 whole entry): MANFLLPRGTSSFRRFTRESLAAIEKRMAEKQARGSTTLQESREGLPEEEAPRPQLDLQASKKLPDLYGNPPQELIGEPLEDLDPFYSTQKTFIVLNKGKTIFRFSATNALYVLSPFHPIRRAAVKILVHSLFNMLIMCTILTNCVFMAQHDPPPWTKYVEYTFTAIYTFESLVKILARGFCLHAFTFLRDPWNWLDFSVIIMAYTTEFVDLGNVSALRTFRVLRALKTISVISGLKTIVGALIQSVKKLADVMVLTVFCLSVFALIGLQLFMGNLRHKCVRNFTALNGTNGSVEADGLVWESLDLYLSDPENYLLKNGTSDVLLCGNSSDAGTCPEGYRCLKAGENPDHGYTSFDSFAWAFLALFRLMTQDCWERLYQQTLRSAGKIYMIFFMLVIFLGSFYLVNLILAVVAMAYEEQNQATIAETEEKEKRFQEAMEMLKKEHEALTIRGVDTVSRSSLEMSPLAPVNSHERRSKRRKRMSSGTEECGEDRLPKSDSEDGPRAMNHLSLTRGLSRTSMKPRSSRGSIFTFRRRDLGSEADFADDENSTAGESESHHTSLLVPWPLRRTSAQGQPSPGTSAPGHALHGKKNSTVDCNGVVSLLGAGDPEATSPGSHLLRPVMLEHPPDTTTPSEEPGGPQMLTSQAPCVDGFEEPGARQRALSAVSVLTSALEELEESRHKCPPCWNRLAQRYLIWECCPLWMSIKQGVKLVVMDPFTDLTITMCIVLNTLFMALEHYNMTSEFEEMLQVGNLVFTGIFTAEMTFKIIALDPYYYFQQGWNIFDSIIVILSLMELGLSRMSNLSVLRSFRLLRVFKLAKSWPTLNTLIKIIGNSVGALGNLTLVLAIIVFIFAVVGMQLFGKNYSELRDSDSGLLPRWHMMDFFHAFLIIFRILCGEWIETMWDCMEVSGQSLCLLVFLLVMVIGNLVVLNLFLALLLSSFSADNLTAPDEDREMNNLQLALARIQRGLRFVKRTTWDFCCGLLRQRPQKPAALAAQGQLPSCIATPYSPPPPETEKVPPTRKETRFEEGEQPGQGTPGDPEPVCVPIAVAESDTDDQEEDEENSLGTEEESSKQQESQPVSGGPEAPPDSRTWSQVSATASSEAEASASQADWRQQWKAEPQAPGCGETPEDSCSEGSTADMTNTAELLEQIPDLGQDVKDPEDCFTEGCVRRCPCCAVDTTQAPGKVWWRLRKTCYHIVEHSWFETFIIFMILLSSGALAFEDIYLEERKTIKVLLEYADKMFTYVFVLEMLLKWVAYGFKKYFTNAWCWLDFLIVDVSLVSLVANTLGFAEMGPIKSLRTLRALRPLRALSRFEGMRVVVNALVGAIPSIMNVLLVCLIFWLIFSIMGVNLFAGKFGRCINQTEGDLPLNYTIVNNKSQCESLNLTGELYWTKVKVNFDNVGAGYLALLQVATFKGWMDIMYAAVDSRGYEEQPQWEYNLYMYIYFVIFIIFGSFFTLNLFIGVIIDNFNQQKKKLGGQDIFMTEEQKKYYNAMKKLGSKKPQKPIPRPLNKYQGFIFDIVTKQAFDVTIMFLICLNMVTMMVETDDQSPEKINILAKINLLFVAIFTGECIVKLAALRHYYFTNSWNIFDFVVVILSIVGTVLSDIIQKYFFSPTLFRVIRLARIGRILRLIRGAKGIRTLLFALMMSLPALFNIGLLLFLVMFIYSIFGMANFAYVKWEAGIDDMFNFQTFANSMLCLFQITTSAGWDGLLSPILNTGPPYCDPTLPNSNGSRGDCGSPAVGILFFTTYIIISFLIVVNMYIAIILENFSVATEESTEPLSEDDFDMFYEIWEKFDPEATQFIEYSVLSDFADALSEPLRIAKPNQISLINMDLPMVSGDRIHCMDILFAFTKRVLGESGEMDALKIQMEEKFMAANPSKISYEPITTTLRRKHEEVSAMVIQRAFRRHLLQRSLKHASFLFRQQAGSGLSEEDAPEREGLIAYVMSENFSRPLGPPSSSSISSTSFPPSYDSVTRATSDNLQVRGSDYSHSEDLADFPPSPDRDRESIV
Method: as §2, §3

[3] = holding potential −80 mV, −80 mV
[4] = holding potential −75 mV, −75 mV

Row | SMILES | IC50 [1] | IC50 [2, 3] | IC50 (NaV1.5) | IC50 [2, 4]
1 | C[C@@H](N)C(CNc1cc(F)c(S(=O)(=O)Nc2ncns2)cc1F)CC1CC2(CC2)CN1 (single isomer, unassigned) [Example 72] | > 33800 nM | 229 nM | > 33800 nM | –
2 | C[C@@H](N)C(CNc1cc(F)c(S(=O)(=O)Nc2ncns2)cc1F)CC1CCCC1CN (single isomer, unassigned) [Example 46] | > 33800 nM | 57 nM | > 33800 nM | –
3 | C[C@@H](N)C(CNc1cc(F)c(S(=O)(=O)Nc2ncns2)cc1F)CC1(C)CCC1CN (single isomer, unassigned) [Example 55] | > 33800 nM | 1060 nM | – | –
4 | C[C@@H](N)C(CNc1cc(F)c(S(=O)(=O)Nc2ncns2)cc1Cl)CC(C)(C)CN (single isomer, unassigned) [Example 3] | > 33800 nM | – | > 33800 nM | 41 nM
5 | C[C@@H](N)C(CNc1cc(F)c(S(=O)(=O)Nc2ncns2)cc1F)CC1CCCCC1CCN (single isomer, unassigned) [Example 62] | > 33800 nM | 56 nM | > 33800 nM | –
6 | C[C@@H](N)C(CNc1cc(F)c(S(=O)(=O)Nc2ncns2)cc1Br)CC1(CCN)CC(F)(F)C1 (single isomer, unassigned) [Example 56] | – | > 33800 nM | – | –
7 | C[C@@H](N)C(CNc1cc(F)c(S(=O)(=O)Nc2ncns2)cc1F)CC1(C)CCC1CN (single isomer, unassigned) [Example 52] | > 33800 nM | 12300 nM | – | –
8 | C[C@@H](N)C(CNc1cc(F)c(S(=O)(=O)Nc2ncns2)cc1F)CC1CCCC12CNC2 (single isomer, unassigned) [Example 25] | > 33800 nM | 83 nM | > 33800 nM | –
9 | C[C@@H](N)[C@H](CNc1cc(F)c(S(=O)(=O)Nc2cccc(F)n2)cc1Cl)CC1(N)CCC1 [Example 105] | 8340 nM | – | – | 14 nM
10 | CC(C)NCC(CNc1cc(F)c(S(=O)(=O)Nc2ncns2)cc1Cl)[C@@H](C)N (single isomer, unassigned) [Example 36] | > 33800 nM | – | > 33800 nM | 82 nM
11 | C[C@@H](N)C(CNc1cc(F)c(S(=O)(=O)Nc2ncns2)cc1F)C[C@]1(C)CCC[C@H]1CN (single isomer, unassigned) [Example 98] | > 33800 nM | 2360 nM | – | –
12 | CC(C)C(N)CC(CNc1cc(F)c(S(=O)(=O)Nc2ncns2)cc1Br)[C@@H](C)N (single isomer, unassigned) [Example 108] | > 33800 nM | – | – | 17 nM
13 | C[C@@H](N)C(CNc1cc(F)c(S(=O)(=O)Nc2ncns2)cc1Cl)CC1COCCN1 (single isomer, unassigned) [Example 104] | > 33800 nM | – | – | 305 nM
14 | C[C@@H](N)C(CNc1cc(F)c(S(=O)(=O)Nc2ncns2)cc1Cl)CC1COCCN1 (single isomer, unassigned) [Example 101] | > 33800 nM | – | – | 84 nM
15 | C[C@@H](N)C(COc1ncc(S(=O)(=O)Nc2ncc(F)s2)cc1Cl)CC1(CCN)CCC1 (single isomer, unassigned) [Example 6] | > 33800 nM | – | – | 93 nM
16 | C[C@@H](N)[C@H](CNc1ncc(S(=O)(=O)Nc2ncns2)cc1C#N)CC(C)(C)CCN [Example 31, 6-(((S)-6-amino-2-((R)-1-aminoethyl)-4,4-dimethylhexyl)amino)-5-cyano-N-(1,2,4-thiadiazol-5-yl)pyridine-3-sulfonamide] | > 33800 nM | – | – | 205 nM
17 | COC(CN)C[C@@H](CNc1cc(F)c(S(=O)(=O)Nc2ncns2)cc1Br)[C@@H](C)N (single isomer, unassigned) [Example 82] | – | 1760 nM | – | –
18 | CC(C)NCC(CNc1cc(F)c(S(=O)(=O)Nc2ncns2)cc1Cl)[C@@H](C)N (single isomer, unassigned) [Example 37] | > 33800 nM | – | – | 6760 nM
19 | C[C@H]1NCCNCC(C)(C)C[C@H]1CNc1cc(F)c(S(=O)(=O)Nc2ncns2)cc1Cl [Example 5, 5-chloro-2-fluoro-N-(1,2,4-thiadiazol-5-yl)-4-((((5R,6S)-5,8,8-trimethyl-1,4-diazonan-6-yl)methyl)amino)benzenesulfonamide] | 20700 nM | – | > 33800 nM | 118 nM
20 | C[C@@H](N)C(CNc1cc(F)c(S(=O)(=O)Nc2ncns2)cc1F)CC1CCCCC1CCN (single isomer, unassigned) [Example 66] | > 33800 nM | 12600 nM | – | –

Row | SMILES | IC50 [1] | IC50 [2, 3] | IC50 (NaV1.5) | IC50 [2, 4]
21 | C[C@@H](N)[C@H](CNc1ccc(S(=O)(=O)Nc2ncns2)c(F)c1)CC(CCN)C1CC1 (single isomer, unassigned) [Example 20] | – | 1390 nM | – | –
22 | C[C@@H](N)C(COc1cc(F)c(S(=O)(=O)Nc2ncns2)cc1F)CC1(CCN)CCC1 (single isomer, unassigned) [Example 95] | > 33800 nM | 4130 nM | – | –
23 | C[C@@H](N)C(CNc1cc(F)c(S(=O)(=O)Nc2ncns2)cc1F)CC1CCCCC1CCN (single isomer, unassigned) [Example 67] | > 33800 nM | > 33800 nM | – | –
24 | Cc1csc(NS(=O)(=O)c2cc(Cl)c(NC[C@H](CC(C)(C)N)[C@@H](C)N)cc2F)n1 [Example 106] | > 33800 nM | – | – | 133 nM
25 | C[C@@H](N)[C@@H](CC(C)(C)CCN)C1CCc2cc(S(=O)(=O)Nc3ncns3)c(F)cc2O1 (single isomer, unassigned) [Example 41] | – | 13700 nM | – | –
26 | CC[C@@H](N)C(CNc1cc(F)c(S(=O)(=O)Nc2ncns2)c(F)c1F)CC1(CCN)CCC1 (single isomer, unassigned) [Example 21] | – | 916 nM | – | –
27 | C[C@@H](N)C(CNc1cc(F)c(S(=O)(=O)Nc2ncns2)cc1F)C[C@]1(C)CCC[C@H]1CN (single isomer, unassigned) [Example 99] | > 33800 nM | 450 nM | – | –
28 | COC(CN)C[C@@H](CNc1cc(F)c(S(=O)(=O)Nc2ncns2)cc1Br)[C@@H](C)N (single isomer, unassigned) [Example 81] | > 33800 nM | 87 nM | – | –
29 | C[C@@H](N)[C@H](CNc1cc(F)c(S(=O)(=O)Nc2ncns2)cc1Cl)CC(N)C(F)(F)F (single isomer, unassigned) [Example 1] | 20400 nM | – | – | 203 nM
30 | C[C@@H](N)C(CNc1cc(F)c(S(=O)(=O)Nc2ncns2)cc1F)CC1CCCC12CNC2 (single isomer, unassigned) [Example 24] | – | > 33800 nM | – | –
31 | C[C@@H](N)C(CNc1ncc(S(=O)(=O)Nc2ncc(F)s2)cc1Cl)CC1(CCN)CCC1 (single isomer, unassigned) [Example 8] | > 33800 nM | – | – | 18 nM
32 | C[C@@H](N)C(CNc1cc(F)c(S(=O)(=O)Nc2ncns2)cc1F)CC1CCCC1CN (single isomer, unassigned) [Example 47] | > 33800 nM | 3610 nM | – | –
33 | C[C@@H](N)[C@H](CNc1cc(F)c(S(=O)(=O)Nc2ncns2)cc1Cl)C[C@@H]1C[C@@H]1CN (single isomer, unassigned) [Example 33] | > 33800 nM | – | – | 156 nM
34 | C[C@@H](N)C(CNc1cc(F)c(S(=O)(=O)Nc2ncns2)cc1F)C[C@@]1(C)CCC[C@@H]1CN (single isomer, unassigned) [Example 96] | > 33800 nM | – | – | 618 nM
35 | C[C@@H](N)C(CNc1cc(F)c(S(=O)(=O)Nc2ncns2)cc1F)CC1CNCC1(C)C (single isomer, unassigned) [Example 76] | > 33800 nM | 328 nM | – | –
36 | C[C@@H](N)C(CNc1cc(F)c(S(=O)(=O)Nc2ncns2)cc1F)CC1CCCCC1CCN (single isomer, unassigned) [Example 64] | > 33800 nM | 14600 nM | – | –
37 | Cc1cc(S(=O)(=O)Nc2ncc(F)s2)c(F)cc1NC[C@H](CC(C)(C)N)[C@@H](C)N [Example 107] | 3590 nM | – | – | 17 nM
38 | C[C@@H](N)[C@H](CNc1ncc(S(=O)(=O)Nc2ncns2)cc1C(F)(F)F)CC(C)(C)CCN [Example 13, 6-(((S)-6-amino-2-((R)-1-aminoethyl)-4,4-dimethylhexyl)amino)-N-(1,2,4-thiadiazol-5-yl)-5-(trifluoromethyl)pyridine-3-sulfonamide] | > 33800 nM | – | – | 230 nM
39 | C[C@@H](N)C(CNc1ccc(S(=O)(=O)Nc2ncns2)cc1F)CC1(N)CCC1 (single isomer, unassigned) [Example 89] | > 33800 nM | – | – | 274 nM
40 | C[C@@H](N)C(CNc1cc(F)c(S(=O)(=O)Nc2ncns2)cc1F)CC1CC(C)(C)CN1 (single isomer, unassigned) [Example 14] | – | > 33800 nM | – | –
